The source of these data is US8871681B2, “Herbicidal compositions comprising 4-amino-3-chloro-5-fluoro-6-(4-chloro-2-fluoro-3-methoxyphenyl) pyridine-2-carboxylic acid or a derivative thereof and certain sulfonylureas” (Dow AgroSciences LLC, priority 2012, dated 2014).

The structures appear in SMILES notation.

Assay [1] concerns LEFCH (Leptochloa chinensis, Chinese sprangletop). As to the kind of experiment: In-water applied weed control, transplanted paddy rice, greenhouse (Example II). Type of assay: in vivo, Leptochloa chinensis (L.) Nees. In short, it runs like this:
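Transplanted rice and weeds at first to fourth true leaf stage in flooded mud pots (2.5–3 cm water), greenhouse ~29/26 °C day/night. Herbicides alone or mixed, in 1.25% crop oil concentrate (acetone for technical material), injected into the flood; visual 0–100% injury after ~3 weeks, expected mixture effects by Colby.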

For assay [2], the system named is ECHCG (Echinochloa crusgalli, barnyardgrass). The experiment in a line: Postemergence foliar-applied weed control, direct seeded rice, greenhouse (Example I). Type of assay: in vivo, Echinochloa crusgalli (L.) Beauv. An excerpt: Seeds or nutlets of the desired test plant species were planted in a soil matrix prepared by mixing a loam or sandy loam soil (e.g., 28.6 percent silt, 18.8 percent clay, and 52.6 percent sand, with a pH of about 5.8 and an organic matter content of about 1.8 percent) and calcareous grit in an 80 to 20 ratio. The soil matrix was contained in plastic pots with a volume of 1 quart and a surface area of 83.6 square centimeters (cm^2). When required to ensure good germination and healthy plants, a fungicide treatment and/or other chemical or physical treatment was applied. The plants were grown for 8-22 days in a greenhouse with an approximate 14 h photoperiod which was maintained at about 29° C. during the day and 26° C. during the night. Nutrients (Peters Excel® 15-5-15 5-Ca 2-Mg and iron chelate) were applied in the irrigation solution as needed and water was added on a regular basis. Supplemental lighting was provided with overhead metal halide 1000-Watt lamps as necessary. The plants were employed for testing when they reached the first through fourth true leaf stage.
Treatments consisted of the acid or esters of 4-amino-3-chloro-5-fluoro-6-(4-chloro-2-fluoro-3-methoxy-phenyl)pyridine-2-carboxylic acid (Compound A), each formulated as an SC, and various herbicidal components alone and in combination. Forms of compound A were applied on an acid equivalent basis.
Other herbicidal components were applied on an active ingredient basis and included acetolactate synthase (ALS)-inhibiting herbicides (sulfonylurea chemical class) azimsulfuron formulated as Gulliver®, bensulfuron-methyl formulated as Londax® 60DF, cyclosulfamuron (technical material), ethoxysulfuron formulated as Sunrice® 15 WDG, flazasulfuron formulated as Katana®, flucetosulfuron formulated as Sukedachi® 1KG G, foramsulfuron formulated as Option®, imazosulfuron formulated as Brazzos® WG, iodosulfuron-methyl-sodium formulated as Hussar®, metsulfuron-methyl formulated as Lorate®, nicosulfuron formulated as Accent®, orthosulfamuron formulated as Strada® WG, primisulfuron-methyl (technical material), propyrisulfuron formulated as Zeta One®, rimsulfuron formulated as Matrix® WG, sulfometuron-methyl formulated as Oust®, and trifloxysulfuron-sodium formulated as Monument® 75WG.
Treatment requirements were calculated based upon the rates being tested, the concentration of active ingredient or acid equivalent in the formulation, and a 12 mL application volume at a rate of 187 L/ha.
For treatments comprised of formulated compounds, measured amounts of compounds were placed individually in 25 mL glass vials and diluted in a volume of 1.25% (v/v) Agri-Dex® crop oil concentrated to obtain 12× stock solutions. […] Application solutions were prepared by adding an appropriate amount of each stock solution (e.g., 1 mL) and diluted to the appropriate final concentrations with the addition of 10 mL of an aqueous mixture of 1.25% (v/v) crop oil concentrate so that the final spray solutions contained 1.25+/−0.05% (v/v) Agrcrop oil concentrate.
For treatments comprised of formulated and technical compounds, weighed amounts of the technical materials were placed individually in 25 mL glass vials and dissolved in a volume of 97:3 v/v acetone/DMSO to obtain 12× stock solutions, and measured amounts of the formulated compounds were placed individually in 25 mL glass vials and diluted in a volume of 1.25% (v/v) crop oil concentrate to obtain 12× stock solutions. […] Application solutions were prepared by adding an appropriate amount of each stock solution (e.g., 1 mL) and diluted to the appropriate final concentrations with the addition of an appropriate amount of an aqueous mixture of 1.5% (v/v) crop oil concentrate so that the final spray solutions contained 1.25% (v/v) crop oil concentrate. […]

As for `COc1c(Cl)ccc(-c2nc(C(=O)O)c(Cl)c(N)c2F)c1F` [Compound A Acid, 4-amino-3-chloro-5-fluoro-6-(4-chloro-2-fluoro-3-methoxy-phenyl)pyridine-2-carboxylic acid], the “Visual Weed Control (%) - 19 DAA LEFCH Obs” value in assay [1] (Table 31, 42 gae/ha alone) was determined as 10%. In addition, the “Visual Weed Control (%) - 22 DAA LEFCH Obs” value was 20% in assay [1] (Table 34, 10.6 gae/ha alone); 40% in assay [1] (Table 34, 21.2 gae/ha alone); 60% in assay [1] (Table 34, 42.4 gae/ha alone). For the same molecule, the “Visual Weed Control (%) - 21 DAA LEFCH Obs” value in assay [1] (Table 36, 17.5 gae/ha alone) was determined as 20%; in assay [1] (Table 47, 17.5 gae/ha alone), 20%. Further, the “Visual Weed Control (%) - 20 DAA LEFCH Obs” value in assay [1] (Table 43, 10.6 gae/ha alone) worked out at 30%; in assay [1] (Table 43, 21.2 gae/ha alone) it was 20%; in assay [1] (Table 43, 42.4 gae/ha alone), 75%; in assay [1] (Table 49, 10.6 gae/ha alone), 30%; in assay [1] (Table 49, 21.2 gae/ha alone), 20%; in assay [1] (Table 49, 42.4 gae/ha alone) it was 75%. Moreover, the “Visual Weed Control (%) Obs” value in assay [2] (21 DAA, 4.38 gae/ha) is 15%; in assay [2] (21 DAA, 8.75 gae/ha), 50%.

As to `COc1c(Cl)ccc(-c2nc(C(=O)OCc3ccccc3)c(Cl)c(N)c2F)c1F` [Compound A Benzyl Ester], in assay [1] (Table 35, 4.38 gae/ha alone), the “Visual Weed Control (%) - 22 DAA LEFCH Obs” value came out at 20%. For the same molecule, the “Visual Weed Control (%) - 20 DAA LEFCH Obs” value in assay [1] (Table 50, 4.38 gae/ha alone) was 20%. For the same molecule, the “Visual Weed Control (%) Obs” value in assay [2] (21 DAA, 4.38 gae/ha) came out at 10%.

With `COCC(=O)OC(c1ncccc1S(=O)(=O)NC(=O)Nc1nc(OC)cc(OC)n1)C(C)F` (stereo not shown) [Flucetosulfuron, 1-[3-[[[[(4,6-dimethoxy-2-pyrimidinyl)amino]carbonyl]amino]sulfonyl]-2-pyridinyl]-2-fluoropropyl 2-methoxyacetate], the “Visual Weed Control (%) - 21 DAA LEFCH Obs” value was 0% in assay [1] (Table 36, 0.1 gai/ha alone) and 0% in assay [1] (Table 36, 0.2 gai/ha alone).

Take `COC(=O)c1ccccc1CS(=O)(=O)NC(=O)Nc1nc(OC)cc(OC)n1` [Bensulfuron-methyl, methyl 2-[[[[[(4,6-dimethoxy-2-pyrimidinyl)amino]carbonyl]amino]sulfonyl]methyl]benzoate, reference compound]: the “Visual Weed Control (%) - 19 DAA LEFCH Obs” value in assay [1] (Table 31, 70 gai/ha alone) is 23%. For the same molecule, the “Visual Weed Control (%) Obs” value came to 0% in assay [2] (21 DAA, 17.5 gai/ha); 0% in assay [2] (21 DAA, 35 gai/ha); 0% in assay [2] (27 DAA, 4.38 gai/ha); 0% in assay [2] (27 DAA, 8.75 gai/ha); 0% in assay [2] (27 DAA, 17.5 gai/ha).
